{"source": "paper PMC2701352", "about": "(Biochemical pharmacology, 2008)", "key": {"hMC4R/TM6 hMC1R": {"target": "hMC4R/TM6 hMC1R (Homo sapiens, UniProt P32245+Q01726)", "sequence (P32245 1-251 limits assumed, other chains not shown)": "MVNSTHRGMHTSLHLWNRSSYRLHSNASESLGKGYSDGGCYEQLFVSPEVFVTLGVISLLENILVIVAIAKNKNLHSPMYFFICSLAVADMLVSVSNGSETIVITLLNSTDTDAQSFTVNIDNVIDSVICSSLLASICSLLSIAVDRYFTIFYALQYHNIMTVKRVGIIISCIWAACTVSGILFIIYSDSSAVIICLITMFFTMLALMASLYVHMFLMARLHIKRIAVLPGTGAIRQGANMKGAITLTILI", "sequence (P32245 271-332 limits assumed, other chains not shown)": "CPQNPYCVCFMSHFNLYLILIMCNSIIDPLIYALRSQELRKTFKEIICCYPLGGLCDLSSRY", "test": "cAMP production, hMC4R/TM6hMC1R chimera"}, "hMC4R/TM3 hMC1R": {"target": "hMC4R/TM3 hMC1R (Homo sapiens, UniProt P32245+Q01726)", "sequence (P32245 1-121 limits assumed)": "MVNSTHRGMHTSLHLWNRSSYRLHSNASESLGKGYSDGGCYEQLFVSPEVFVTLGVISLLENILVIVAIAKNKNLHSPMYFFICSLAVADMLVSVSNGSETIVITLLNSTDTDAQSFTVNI", "sequence (Q01726 117-137 limits assumed)": "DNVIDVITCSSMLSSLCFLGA", "sequence (P32245 143-332 limits assumed)": "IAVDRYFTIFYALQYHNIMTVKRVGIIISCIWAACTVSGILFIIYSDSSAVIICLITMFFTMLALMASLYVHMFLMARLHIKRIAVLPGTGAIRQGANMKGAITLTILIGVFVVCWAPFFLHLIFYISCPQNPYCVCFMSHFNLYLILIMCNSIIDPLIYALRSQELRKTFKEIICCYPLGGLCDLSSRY", "test": "cAMP production, hMC4R/TM3hMC1R chimera"}, "hMC4R/TM2 hMC1R": {"target": "hMC4R/TM2 hMC1R (Homo sapiens, UniProt P32245, A89S/G98V/I102A/M91L/S85C/S99L/V88L/V95G)", "sequence (P32245 whole entry S85C/V88L/A89S/M91L/V95G/G98V/S99L/I102A)": "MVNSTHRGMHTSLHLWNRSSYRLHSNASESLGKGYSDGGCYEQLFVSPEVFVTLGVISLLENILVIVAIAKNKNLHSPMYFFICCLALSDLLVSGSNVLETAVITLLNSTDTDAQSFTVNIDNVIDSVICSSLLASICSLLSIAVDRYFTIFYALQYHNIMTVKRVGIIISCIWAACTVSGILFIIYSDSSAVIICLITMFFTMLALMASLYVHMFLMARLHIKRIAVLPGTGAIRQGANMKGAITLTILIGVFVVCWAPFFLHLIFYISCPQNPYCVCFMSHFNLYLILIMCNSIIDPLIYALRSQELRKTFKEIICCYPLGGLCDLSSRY", "test": "cAMP production, hMC4R/TM2hMC1R chimera", "format": "cell-based"}, "hMC1R WT": {"target": "hMC1R WT (Homo sapiens, UniProt Q01726)", "sequence (Q01726 whole entry)": "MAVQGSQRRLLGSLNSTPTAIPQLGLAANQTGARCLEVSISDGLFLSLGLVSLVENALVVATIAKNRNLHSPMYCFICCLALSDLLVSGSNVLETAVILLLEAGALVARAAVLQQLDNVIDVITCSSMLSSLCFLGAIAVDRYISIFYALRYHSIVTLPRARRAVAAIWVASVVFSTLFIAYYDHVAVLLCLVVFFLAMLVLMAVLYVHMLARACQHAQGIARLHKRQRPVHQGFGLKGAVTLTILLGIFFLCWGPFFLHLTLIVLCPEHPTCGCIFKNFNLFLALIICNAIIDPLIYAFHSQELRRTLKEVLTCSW", "test": "cAMP production, hMC1R WT in HEK-293 cells", "format": "cell-based"}, "hMC4R WT": {"target": "hMC4R WT (Homo sapiens, UniProt P32245)", "sequence (P32245 whole entry)": "as the sequence (P32245 whole entry S85C/V88L/A89S/M91L/V95G/G98V/S99L/I102A) above, with C85S, L88V, S89A, L91M, G95V, V98G, L99S, A102I counted along it", "test": "cAMP production, hMC4R WT in HEK-293 cells", "format": "cell-based"}, "hMC4R/TM5 hMC1R": {"tested_on": "hMC4R/TM5 hMC1R", "test": "cAMP production, hMC4R/TM5hMC1R chimera", "settings": "Fig. 4B, 4D"}, "hMC4R/TM4 hMC1R": {"target": "hMC4R/TM4 hMC1R (Homo sapiens, UniProt P32245+Q01726)", "sequence (P32245 1-172 limits assumed, other chains not shown)": "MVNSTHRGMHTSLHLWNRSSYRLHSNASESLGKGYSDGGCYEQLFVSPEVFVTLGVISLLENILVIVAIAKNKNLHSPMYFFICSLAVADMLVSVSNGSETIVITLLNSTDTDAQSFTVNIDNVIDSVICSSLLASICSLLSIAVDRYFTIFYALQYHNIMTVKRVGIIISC", "sequence (P32245 188-332 limits assumed, other chains not shown)": "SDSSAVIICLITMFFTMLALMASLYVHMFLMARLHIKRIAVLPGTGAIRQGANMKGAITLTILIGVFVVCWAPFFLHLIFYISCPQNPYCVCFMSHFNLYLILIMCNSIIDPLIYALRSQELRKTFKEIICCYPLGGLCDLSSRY", "test": "cAMP production, hMC4R/TM4hMC1R chimera"}}, "note": "Entries after “also recorded” stand apart in the source; their conditions may differ."}
{"smiles": "CCCC[C@H](NC(=O)[C@@H](NC(=O)[C@@H](N)Cc1ccc(O)cc1)C(C)C)C(=O)NCC(=O)N1CCC[C@H]1C(=O)N[C@H](Cc1ccccc1)C(=O)N[C@@H](CCCNC(=N)N)C(=O)N[C@@H](Cc1c[nH]c2ccccc12)C(=O)N[C@@H](CC(=O)O)C(=O)N[C@@H](CCCNC(=N)N)C(=O)N[C@@H](Cc1ccccc1)C(=O)NCC(N)=O", "note": "[[DPhe^6]-γ-MSH, H-Tyr-Val-Nle-Gly-Pro-DPhe-Arg-Trp-Asp-Arg-Phe-Gly-NH2]", "values": [{"measurement": "EC50", "setting": "hMC4R/TM6 hMC1R", "result": "3.2 ± 0.3", "unit": "nM"}, {"measurement": "cAMP potency (in words)", "setting": "hMC4R/TM6 hMC1R; Fig. 4B, 4D", "result": "did not significantly alter [DPhe^6]-γ-MSH potency"}, {"measurement": "EC50", "setting": "hMC4R/TM3 hMC1R", "result": "3.3 ± 0.5", "unit": "nM"}, {"measurement": "cAMP potency (in words)", "setting": "hMC4R/TM3 hMC1R; Fig. 3B, 3D", "result": "did not significantly alter [DPhe^6]-γ-MSH potency"}, {"measurement": "EC50", "setting": "hMC4R/TM2 hMC1R", "result": "2.9 ± 0.3", "unit": "nM"}, {"measurement": "cAMP potency (in words)", "setting": "hMC4R/TM2 hMC1R; Fig. 3B, 3D", "result": "did not significantly alter [DPhe^6]-γ-MSH potency"}, {"measurement": "EC50", "setting": "hMC1R WT", "result": "2.3 ± 0.5", "unit": "nM"}, {"measurement": "cAMP production, potency and agonism (in words)", "setting": "hMC1R WT; Fig. 2B, 2D", "result": "dose-dependently increased cAMP generation; also recorded: non selective agonist for the MC1R and MC4R"}, {"measurement": "EC50", "setting": "hMC4R WT", "result": 35, "unit": "nM"}, {"measurement": "cAMP production, potency and agonism (in words)", "setting": "hMC4R WT; Fig. 2B, 2D", "result": "dose-dependently increased cAMP generation; also recorded: non selective agonist for the MC1R and MC4R"}, {"measurement": "cAMP potency (in words)", "setting": "hMC4R/TM5 hMC1R", "result": "did not significantly alter [DPhe^6]-γ-MSH potency"}, {"measurement": "EC50", "setting": "hMC4R/TM4 hMC1R", "result": "3.1 ± 0.3", "unit": "nM"}, {"measurement": "cAMP potency (in words)", "setting": "hMC4R/TM4 hMC1R; Figs. 3 and 4", "result": "did not significantly alter [DPhe^6]-γ-MSH potency"}]}
